target: T1, MNK2 (Homo sapiens, UniProt Q9HBH9); experiment: Mnk2a in vitro kinase assay (indirect fluorescence polarization); type: biochemical; conditions: pre-activated GST-Mnk2a 2.5 nM, 20 μM ATP, 30 μM substrate peptide
T1 construct: the open reading frames of human Mnk1 and Mnk2a were amplified from cDNA; made in house; host or cells: E. coli BL21
Procedure, shortened: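 Human GST-Mnk2a was expressed in E. coli and activated in vitro with 150 nM pre-activated ERK2 and 50 μM ATP in HEPES pH 7.4/MgCl2 buffer (45 min, 30 °C). Activity on an eIF4E Ser209-derived 12mer peptide was read by competitive fluorescence polarization with a phospho-specific antibody.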

T1 sequence (Q9HBH9 whole entry): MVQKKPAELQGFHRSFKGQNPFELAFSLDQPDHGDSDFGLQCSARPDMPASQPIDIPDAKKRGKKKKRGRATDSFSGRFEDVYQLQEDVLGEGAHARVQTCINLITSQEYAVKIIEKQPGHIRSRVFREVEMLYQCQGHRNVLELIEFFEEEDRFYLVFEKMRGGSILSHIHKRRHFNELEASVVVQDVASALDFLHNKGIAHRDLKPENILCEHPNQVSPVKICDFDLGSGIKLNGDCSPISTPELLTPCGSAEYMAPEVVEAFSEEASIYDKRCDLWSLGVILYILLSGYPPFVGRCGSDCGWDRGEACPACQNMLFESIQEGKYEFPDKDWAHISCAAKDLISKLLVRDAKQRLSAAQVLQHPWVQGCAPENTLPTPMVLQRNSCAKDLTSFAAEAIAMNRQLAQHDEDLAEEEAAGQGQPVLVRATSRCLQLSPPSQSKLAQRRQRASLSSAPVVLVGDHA

SMILES | IC50 [nM]
COC1CCC(Oc2cc(F)ccc2Nc2ncnc3sc(C(=O)NCCCCO)c(C)c23)CC1 (stereo not shown) [Example 181] | 21
CO[C@@H]1CCCC[C@H]1Oc1cc(F)ccc1Nc1ncnc2sc(C(=O)NCCSC)c(C)c12 [Example 252] | 18
CC(=O)N[C@H]1CC[C@H](Oc2cc(F)ccc2Nc2ncnc3sc(C(=O)NC4CCN(C)CC4)c(C)c23)C1 [Example 234] | 32
Cc1c(C(=O)NCCCN(C)C)sc2ncnc(Nc3ccc(F)cc3OC3CCC(C)(C)CC3)c12 [Example 32, 4-[2-(4,4-Dimethyl-cyclohexyloxy)-4-fluoro-phenylamino]-5-methyl-thieno[2,3-d]pyrimidine-6-carboxylic acid (3-dimethylamino-propyl)-amide] | 36
CO[C@@H]1CCC[C@@H](Oc2ncccc2Nc2ncnc3sc(C(=O)NCC#CCN(C)C)c(C)c23)C1 (racemic) [Example 138] | 48
CNC(=O)CNC(=O)c1sc2ncnc(Nc3ccc(F)cc3O[C@H]3CC[C@H](O)CC3)c2c1C [Example 164] | 16
CO[C@H]1CC[C@H](Oc2cc(F)ccc2Nc2ncnc3sc(C(=O)NCCN4CCCCC4)c(C)c23)CC1 [Example 190] | 30
Cc1c(C(N)=O)sc2ncnc(Nc3ccc(F)cc3OC3CCC(O)C3)c12 (stereo not shown) [Example 225, 4-(4-fluoro-2-(3-hydroxycyclopentyloxy)phenylamino)-5-methylthieno[2,3-d]pyrimidine-6-carboxamide] | 6
COC1CCCC(Oc2ncccc2Nc2ncnc3sc(C(=O)NCC#CCN(C)C)c(C)c23)C1 (stereo not shown) [Example 117] | 12
CC(=O)N[C@H]1CC[C@H](Oc2cc(F)ccc2Nc2ncnc3sc(C(N)=O)c(C)c23)CC1 [Example 5, 4-(2-(trans-4-acetamidocyclohexyloxy)-4-fluorophenylamino)-5-methylthieno[2,3-d]pyrimidine-6-carboxamide] | 3
Cc1c(C(N)=O)sc2ncnc(Nc3ccc(F)cc3O[C@H]3CC[C@H](N(C)S(C)(=O)=O)CC3)c12 [Example 4, 4-(4-Fluoro-2-(trans-4-(N-methylmethylsulfonamido)cyclohexyloxy)phenylamino)-5-methylthieno[2,3-d]pyrimidine-6-carboxamide] | 23
COC1CCCC(Oc2ncccc2Nc2ncnc3sc(C(=O)NC4CC4N)c(C)c23)C1 (mixture of isomers) [Example 132] | 96
CO[C@H]1CC[C@H](Oc2cc(F)ccc2Nc2ncnc3sc(C(=O)NCCCN(CCO)CCO)c(C)c23)CC1 [Example 278] | 7
CO[C@@H]1CCC[C@@H](Oc2cc(F)ccc2Nc2ncnc3sc(C(=O)NCc4cnco4)c(C)c23)C1 (racemic) [Example 82] | 44
Cc1c(C(N)=O)sc2ncnc(Nc3ccc(F)cc3O[C@@H]3C[C@@H](O)[C@@H](O)C3)c12 [Example 212] | 8
Cc1c(C(N)=O)sc2ncnc(Nc3ccc(F)cc3O[C@@H]3CCCC[C@H]3O)c12 [Example 52, 4-[4-Fluoro-2-((1R,2R)-2-hydroxy-cyclohexyloxy)-phenylamino]-5-methyl-thieno[2,3-d]pyrimidine-6-carboxylic acid amide] | 30
Cc1c(C(N)=O)sc2ncnc(Nc3ccc(F)cc3O[C@H]3C[C@@H]4OCO[C@@H]4C3)c12 [Example 214] | 9
Cc1c(C(N)=O)sc2ncnc(Nc3ccc(F)cc3OC3C[C@@H](O)[C@H](O)C3)c12 (relative stereo) [Example 211] | 8
CO[C@H]1CC[C@H](Oc2cc(F)ccc2Nc2ncnc3sc(C(=O)N[C@H]4C[C@@H]4N)c(C)c23)CC1 [Example 189] | 28

SMILES | IC50 [nM]
Cc1c(C(=O)NCC(C)O)sc2ncnc(Nc3ccc(F)cc3O[C@H]3CC[C@H](O)CC3)c12 (stereo partly shown) [Example 171] | 43
CO[C@H]1CCC[C@@H](Oc2ncccc2Nc2ncnc3sc(C(=O)NCCCN4CCCC4)c(C)c23)C1 (racemic) [Example 127] | 16
Cc1c(C(=O)NCCCN(C)C)sc2ncnc(Nc3cccnc3O[C@H]3CC[C@H](O)CC3)c12 [Example 206, 4-[2-(trans-4-Hydroxy-cyclohexyloxy)-pyridin-3-ylamino]-5-methyl-thieno[2,3-d]pyrimidine-6-carboxylic acid (3-dimethylamino-propyl)-amide] | 13
Cc1c(C(=O)N[C@H]2CC[C@H](O)CC2)sc2ncnc(Nc3ccc(F)cc3O[C@@H]3CCC[C@@H](O)C3)c12 (racemic) [Example 69] | 34
COC(=O)c1sc2ncnc(Nc3ccc(F)cc3O[C@H]3CCCC[C@H]3O)c2c1C (single isomer, unassigned) [Example 257, 4-[4-fluoro-2-(cis-2-hydroxy-cyclohexyloxy)-phenylamino]-5-methyl-thieno[2,3-d]pyrimidine-6-carboxylic acid methyl ester] | 141
CO[C@@H]1CCC[C@@H](Oc2ncccc2Nc2ncnc3sc(C(=O)NC4CCN(C)CC4)c(C)c23)C1 (racemic) [Example 144] | 89
Cc1c(C(=O)NCc2cn(C)cn2)sc2ncnc(Nc3ccc(F)cc3O[C@H]3CC[C@H](O)CC3)c12 [Example 174] | 10
CO[C@H]1CCC[C@@H](Oc2cc(F)ccc2Nc2ncnc3sc(C(=O)NCCCN4CCOCC4)c(C)c23)C1 (racemic) [Example 97] | 24
Cc1c(C(=O)NCCCN(C)C)sc2ncnc(Nc3ccc(F)cc3O[C@H]3CC[C@H](O)CC3)c12 [Example 152, 4-[4-Fluoro-2-(trans-4-hydroxy-cyclohexyloxy)-phenylamino]-5-methyl-thieno[2,3-d]pyrimidine-6-carboxylic acid (3-dimethylamino-propyl)-amide] | 11
CO[C@@H]1CCC[C@@H](Oc2ncccc2Nc2ncnc3sc(C(=O)NCc4cnco4)c(C)c23)C1 (racemic) [Example 135] | 65
CC(=O)N[C@H]1CC[C@H](Oc2cc(F)ccc2Nc2ncnc3sc(C(=O)NCCCN(C)C)c(C)c23)CC1 [Example 6] | 7
CO[C@@H]1CCC[C@@H](Oc2ncccc2Nc2ncnc3sc(C(=O)NCC#CCN)c(C)c23)C1 (racemic) [Example 133] | 53
CO[C@H]1CCC[C@@H](Oc2cc(F)ccc2Nc2ncnc3sc(C(=O)NCCCO)c(C)c23)C1 (racemic) [Example 105] | 24
Cc1c(C(N)=O)sc2ncnc(Nc3ccc(F)cc3O[C@H]3CC[C@@H](O)CC3)c12 [Example 150] | 11
Cc1c(C(N)=O)sc2ncnc(Nc3ccc(F)cc3O[C@H]3CC[C@H](NC(=O)OC(C)(C)C)C3)c12 [Example 228, {(1S,3S)-3-[2-(6-Carbamoyl-5-methyl-thieno[2,3-d]pyrimidin-4-ylamino)-5-fluoro-phenoxy]-cyclopentyl}-carbamic acid tert-butyl ester] | 1140
Cc1c(C(N)=O)sc2ncnc(Nc3ccc(F)cc3O[C@@H]3CCC[C@H]4OC(C)(C)O[C@@H]34)c12 (relative stereo) [Example 1] | 13
CO[C@H]1CC[C@H](Oc2cc(F)ccc2Nc2ncnc3sc(C(=O)NCc4cn(C)cn4)c(C)c23)CC1 [Example 186] | 20
CNC(=O)CNC(=O)c1sc2ncnc(Nc3ccc(F)cc3O[C@H]3CC[C@H](OC)CC3)c2c1C [Example 188] | 20

From US8754079B2, “Cycloalkyl containing thienopyrimidines for pharmaceutical compositions” (Boehringer Ingelheim International GmbH, priority 2010, dated 2014)
